Earlier results, collected in patent US20040062754A1, “Photopheresis treatment of chronic HCV infections” (priority 1996, published 2004).

What was measured:
[1] = system: progressive systemic sclerosis; conditions: 56 patients enrolled

interferon alpha-2b, recombinant
sustained response off treatment (hepatitis C virus; six month course, 3 million units three times a week): 18%

Nc1nc2c(ncn2COCCO)c(=O)[nH]1 [acyclovir]
benefit in chronic hepatitis C (hepatitis C virus; in vivo): little benefit

interferon-alpha
relapse rate after interferon therapy (hepatitis C virus; in vivo): 80-85%
patients with normal LFTs and nondetectable HCV RNA by RT-PCR seven years later (hepatitis C virus; ten patients, subcutaneous injections for up to a year): Six

CC(C)(S)[C@@H](N)C(=O)O [D-penicillamine]
response rate [1]: 32%
